The text below walks through data of PubChem BioAssay AID977614 (Broad Institute, 2014).

Usually AC50 stands for the midpoint of the concentration-response curve, whichever way the signal moves.

The test system of this experiment is L. donovani amastigotes in THP-1 macrophages, DAPI imaging, 72 h. Kind of experiment: antileishmanial activity in infected macrophages – imaging, THP-1 host macrophages, single concentration (AID 977614).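 Further: signal is the parasite per host cell ratio from DAPI stained kinetoplasts and nuclei.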

Calls of active or inactive are those of the source.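 How the source made its calls: active means parasite count per well reduced by over 3 SD from the mean, with host cell number above 80% of untreated; inactive means the rest.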 Some results are limits rather than exact numbers.

Turning to `C[C@H](CO)N1C[C@H](C)[C@H](CN(C)Cc2cccc3c2OCCCO3)OCc2cnnn2CCCC1=O`, the AC50 is > 10 µM (inactive). On to `COc1ccc(CN(C)C[C@H]2OCc3cnnn3CCCC(=O)N([C@H](C)CO)C[C@@H]2C)cc1`, for which the AC50 was > 10 µM (inactive).

On to `O=C(NC[C@H]1N[C@H](CO)[C@H]1c1ccc(-c2ccccc2F)cc1)c1ccccn1`, for which the AC50 is > 10 µM (inactive). In the case of `CN(C[C@@H]1[C@@H](c2ccccc2)[C@@H](CO)N1Cc1ccccn1)S(C)(=O)=O` it was > 10 µM (inactive); in that of `C/C=C/c1ccc([C@@H]2[C@@H](CO)N(C(C)=O)[C@H]2CNC(=O)c2ccccc2)cc1`, > 10 µM (inactive); in that of `O=C(c1ccccc1F)N1C[C@@H]2[C@H](c3ccccc31)[C@H](CO)N2C(=O)Nc1ccccc1`, > 10 µM (inactive). In the case of `CNC[C@H]1OCc2cn(nn2)CCCC(=O)N([C@H](C)CO)C[C@@H]1C` it was > 10 µM (inactive); in that of `CC(=O)N1[C@@H](CO)[C@@H]2c3ccccc3N(S(=O)(=O)c3ccccc3C)C[C@@H]21`, > 10 µM (inactive). With `O=C(NC[C@@H]1[C@H](c2ccccc2)[C@@H](CO)N1Cc1cccnc1)c1ccccn1` the figure was > 10 µM (inactive); with `C[C@H]1CN([C@@H](C)CO)C(=O)CCCn2nncc2CO[C@@H]1CN(C)C(=O)Nc1cccc(Oc2ccccn2)c1`, > 10 µM (inactive).

For `O=C(c1ccccn1)N1C[C@@H]2[C@H](c3ccccc31)[C@H](CO)N2C(=O)C1CCCCC1`, the AC50 is > 10 µM (inactive). For `C[C@H]1CN([C@@H](C)CO)C(=O)CCCn2nncc2CO[C@@H]1CN(C)C(=O)Oc1cccc2ccccc12`, the AC50 is > 10 µM (inactive).

On to `C[C@H](CO)N1C[C@H](C)[C@H](CN(C)C(=O)NC2CCCCC2)OCc2cn(nn2)CCCC1=O`, for which the AC50 was > 10 µM (inactive). With `O=C(C1CC1)N1C[C@@H]2[C@H](c3ccccc31)[C@H](CO)N2C(=O)c1ccccc1`, the AC50 is > 10 µM (inactive). For `COCC(=O)N1[C@@H]2CN(C(=O)Nc3ccccc3Cl)c3ccccc3[C@@H]2[C@@H]1CO`, the AC50 is > 10 µM (inactive). Turning to `COc1ccccc1NC(=O)N1C[C@H]2[C@@H](c3ccccc31)[C@@H](CO)N2C(=O)C1CCCC1`, the AC50 is > 10 µM (inactive). As for `CCCNC(=O)N1[C@@H]2CN(C(=O)Nc3cccc(Cl)c3)c3ccccc3[C@@H]2[C@@H]1CO`, the AC50 was > 10 µM (inactive).

As for `C[C@H]1CN([C@@H](C)CO)C(=O)CCCn2cc(nn2)CO[C@@H]1CN(C)S(=O)(=O)c1cccc(C#N)c1`, the AC50 was > 10 µM (inactive). In the case of `C/C=C/c1ccc([C@@H]2[C@H](CO)N[C@H]2CN(CC(C)C)C(=O)c2ccccn2)cc1` it was > 10 µM (inactive); in that of `C[C@H]1CN([C@@H](C)CO)C(=O)CCCn2nncc2CO[C@@H]1CN(C)Cc1cccc(C(F)(F)F)c1`, > 10 µM (inactive); in that of `C[C@H](CO)N1C[C@H](C)[C@@H](CN(C)Cc2cccc(C(F)(F)F)c2)OCc2cnnn2CCCC1=O`, > 10 µM (inactive). In the case of `CCC(=O)N(CC(C)C)C[C@@H]1[C@@H](c2ccccc2)[C@H](CO)N1C(=O)C1CCC1`, the AC50 is > 10 µM (inactive). With `C[C@H](CO)N1C[C@H](C)[C@@H](CN(C)C(=O)Oc2cccc3ccccc23)OCc2cnnn2CCCC1=O` the figure was > 10 µM (inactive). With `C[C@@H]1CN([C@@H](C)CO)C(=O)CCCn2nncc2CO[C@H]1CN(C)Cc1ccccc1C(=O)O` the figure was > 10 µM (inactive); with `C[C@H](CO)N1C[C@H](C)[C@@H](CN(C)C(=O)CCC(F)(F)F)OCc2cnnn2CCCC1=O`, > 10 µM (inactive); with `C/C=C/c1ccc([C@@H]2[C@@H](CN(CC)C(=O)CN(C)C)N(C(C)=O)[C@H]2CO)cc1`, > 10 µM (inactive). With `COc1ccccc1NC(=O)N1C[C@H]2[C@@H](c3ccccc31)[C@H](CO)N2C(=O)C1CCCC1` the figure was > 10 µM (inactive). `C[C@H]1CN([C@@H](C)CO)C(=O)CCCn2nncc2CO[C@H]1CN(C)Cc1cccc2c1OCCCO2`: the AC50 is > 10 µM (inactive). Turning to `C[C@@H]1CN([C@@H](C)CO)C(=O)CCCn2cc(nn2)CO[C@@H]1CN(C)C(=O)Nc1cccc2ccccc12`, the AC50 was > 10 µM (inactive). Regarding `C[C@@H]1CN([C@H](C)CO)C(=O)CCCn2nncc2CO[C@H]1CN(C)Cc1cccc(C(F)(F)F)c1`, the AC50 was > 10 µM (inactive). Turning to `CN1C[C@H]2[C@@H](c3ccccc31)[C@@H](CO)N2C(=O)C1CCOCC1`, the AC50 is > 10 µM (inactive). In the case of `COCC(=O)N1C[C@H]2[C@@H](c3ccccc31)[C@H](CO)N2Cc1cc(F)ccc1F` it was > 10 µM (inactive); in that of `C/C=C/c1ccc([C@H]2[C@@H](CO)N[C@@H]2CN(CC(C)C)C(=O)c2ccccn2)cc1`, > 10 µM (inactive); in that of `C[C@@H]1CN([C@H](C)CO)C(=O)CCCn2cc(nn2)CO[C@H]1CN(C)C(=O)Nc1cccc(C(F)(F)F)c1`, > 10 µM (inactive). As to `CCN(C[C@H]1[C@H](c2ccccc2)[C@@H](CO)N1CC1CC1)C(=O)c1ccccn1`, the AC50 was > 10 µM (inactive). With `CCN(C[C@H]1[C@H](c2ccccc2)[C@H](CO)N1C(C)=O)C(=O)NC1CCCC1` the figure was > 10 µM (inactive); with `CCCNC(=O)N(C)C[C@H]1[C@H](c2ccccc2)[C@@H](CO)N1C(=O)c1ccccc1`, > 10 µM (inactive); with `O=C(c1ccc2c(c1)OCO2)N1C[C@H]2[C@@H](c3ccccc31)[C@@H](CO)N2C(=O)CC1CC1`, > 10 µM (inactive). In the case of `COc1ccc(NC(=O)N(C)C[C@@H]2OCc3cnnn3CCCC(=O)N([C@H](C)CO)C[C@@H]2C)c(OC)c1` it was > 10 µM (inactive).

Consider `COCC(=O)N(C[C@@H]1[C@@H](c2ccccc2)[C@@H](CO)N1C(=O)NC(C)C)C(C)C`, for which the AC50 was > 10 µM (inactive). On to `C[C@@H]1CN([C@@H](C)CO)C(=O)CCCn2cc(nn2)CO[C@@H]1CN(C)C(=O)c1ccc(N2CCN(C)CC2)cc1`, for which the AC50 was > 10 µM (inactive). With `O=C(NC[C@@H]1[C@@H](c2ccccc2)[C@H](CO)N1C(=O)Cc1ccncc1)C1CCC1` the figure was > 10 µM (inactive); with `OC[C@@H]1[C@H](c2ccc(-c3ccc(F)cc3)cc2)[C@H](CNC2CCCC2)N1CCC(F)(F)F`, > 10 µM (inactive); with `C[C@@H]1CN([C@@H](C)CO)C(=O)CCCn2cc(nn2)CO[C@H]1CN(C)Cc1ccccc1`, > 10 µM (inactive). On to `C[C@H](CO)N1C[C@H](C)[C@H](CN(C)C(=O)NC2CCCC2)OCc2cnnn2CCCC1=O`, for which the AC50 was > 10 µM (inactive). In the case of `C[C@@H]1CN([C@@H](C)CO)C(=O)CCCn2nncc2CO[C@H]1CN(C)S(=O)(=O)c1ccc(Oc2ccccc2)nc1` it was > 10 µM (inactive). In the case of `CCCN1[C@H](CO)[C@H](c2ccc(C#CC(C)C)cc2)[C@@H]1CN(C)S(C)(=O)=O` it was > 10 µM (inactive); in that of `CCN(C[C@@H]1N[C@@H](CO)[C@H]1c1ccccc1)C(=O)c1ccncc1`, > 10 µM (inactive); in that of `C/C=C/c1ccc([C@H]2[C@@H](CO)N(C(=O)C3CC3)[C@H]2CNC(=O)NC(C)C)cc1`, > 10 µM (inactive). With `C[C@@H]1CN([C@H](C)CO)C(=O)CCCn2nncc2CO[C@@H]1CN(C)Cc1ccccc1C(=O)O` the figure was > 10 µM (inactive); with `O=C(NC[C@H]1N[C@H](CO)[C@@H]1c1ccc(-c2cncnc2)cc1)C1CCCCC1`, > 10 µM (inactive); with `CCC(=O)N1[C@H](CO)[C@@H](c2ccccc2)[C@H]1CN(C)C(=O)CN1CCOCC1`, > 10 µM (inactive).

For the compound `CC(=O)N1[C@H](CO)[C@H](c2ccccc2)[C@H]1CN(C)S(=O)(=O)c1ccccc1`, the AC50 was > 10 µM (inactive).

For the compound `C[C@H]1CN([C@@H](C)CO)C(=O)CCCn2cc(nn2)CO[C@@H]1CN(C)C(=O)Nc1cccc(C(F)(F)F)c1`, the AC50 was > 10 µM (inactive). Consider `Cc1noc(C)c1S(=O)(=O)N(C)C[C@@H]1OCc2cnnn2CCCC(=O)N([C@H](C)CO)C[C@@H]1C`, for which the AC50 is > 10 µM (inactive). With `CC(=O)N(CC1CCC1)C[C@H]1N[C@H](CO)[C@@H]1c1ccc(C2=CCCC2)cc1`, the AC50 was > 10 µM (inactive). For `O=S(=O)(NC[C@H]1[C@H](c2ccccc2)[C@@H](CO)N1CC1CC1)c1ccccc1`, the AC50 was > 10 µM (inactive). On to `O=C(c1ccncc1)N1C[C@@H]2[C@H](c3ccccc31)[C@H](CO)N2C(=O)CN1CCOCC1`, for which the AC50 was > 10 µM (inactive).

Consider `CCC(=O)NC[C@H]1[C@@H](c2ccc(-c3ccc(F)cc3)cc2)[C@@H](CO)N1C(=O)CC`, for which the AC50 is > 10 µM (inactive).
